Assay results from patent US20240208912A1 (Mirati Therapeutics, Inc., priority 2021, published 2024).
Structures can show the parent of a compound that is named as a salt. Where two headings read alike, the source gives them in different places.

Columns and labels:
PRMT5/MEP50 complex = molecular target: T1, PRMT5/MEP50 complex (Homo sapiens, UniProt O14744); test: PRMT5:MEP50 HotSpot Assay (full-length histone H2A substrate, plus and minus MTA); type: biochemical; conditions: IC50 + 2 μM MTA, in the presence of 2 μM MTA
T1 construct: purchased Reaction Biology Corporation
Protocol: The PRMT5 inhibitory activity of compounds of the present invention was determined using either a PRMT5:MEP50 FlashPlate Assay (Reaction Biology Corporation) or a PRMT5:MEP50 HotSpot Assay (Reaction Biology Corporation).
The assay uses recombinant full-length hi stone H2A as the PRMT5 substrate. […] The reaction was stopped and transferred to filter paper for detection. The amount of tritiated H2A in each sample was determined using a scintillation counter.

[1] = test system: HCT116 homozygous MTAP knockout cells; test: Proliferation assay (CellTiter-Glo, 10 days) in HCT116 homozygous MTAP knockout cells; type: cell-based; conditions: CellTiter-Glo after 10 days of treatment, read-out: Proliferation IC50 (nM) HCT116 MTAP_KO
Protocol: HCT116 cells were genetically engineered to knock out the function of both MTAP alleles using a CRISPR/Cas9 system and an sgRNA targeting the MTAP gene. Following Cas9/MTAP sgRNA transduction, clones were screened to confirm that each allele of the MTAP gene had been inactivated (i.e., homozygous MTAP knock out) creating an MTAP-deficient cell.
Control samples were analyzed in parallel.
Briefly, on Day 0, 250 HCT116 parental or HCT116 homozygous MTAP knockout cell were seeded in 96 well plates in McCoy's 5A supplemented with […] fetal bovine serum and pen/strep and the cells were incubated overnight at 37° C. plus 5% CO2.
The following day, cells were treated with DMSO vehicle control or a dose response of PRMT5 inhibitors and incubated at 37 C plus 5% CO2 for five days. On Day 6, the cells were trypsinized and split 1:10 into new 96-well plates with fresh medium containing the same concentration of PRMT5 inhibitor and incubated for an additional 5 days at 37° C. plus 5% CO^2.
On Day 11, the viability of the cells was measured using a CTG assay kit (CellTiter-Glo; Promega cat.no G7573) in accordance with the manufacturer's instructions. The IC50 values for each compound after 10 days of treatment were calculated using GraphPad PRISM software.

T1 sequence (O14744 2-637 limits assumed): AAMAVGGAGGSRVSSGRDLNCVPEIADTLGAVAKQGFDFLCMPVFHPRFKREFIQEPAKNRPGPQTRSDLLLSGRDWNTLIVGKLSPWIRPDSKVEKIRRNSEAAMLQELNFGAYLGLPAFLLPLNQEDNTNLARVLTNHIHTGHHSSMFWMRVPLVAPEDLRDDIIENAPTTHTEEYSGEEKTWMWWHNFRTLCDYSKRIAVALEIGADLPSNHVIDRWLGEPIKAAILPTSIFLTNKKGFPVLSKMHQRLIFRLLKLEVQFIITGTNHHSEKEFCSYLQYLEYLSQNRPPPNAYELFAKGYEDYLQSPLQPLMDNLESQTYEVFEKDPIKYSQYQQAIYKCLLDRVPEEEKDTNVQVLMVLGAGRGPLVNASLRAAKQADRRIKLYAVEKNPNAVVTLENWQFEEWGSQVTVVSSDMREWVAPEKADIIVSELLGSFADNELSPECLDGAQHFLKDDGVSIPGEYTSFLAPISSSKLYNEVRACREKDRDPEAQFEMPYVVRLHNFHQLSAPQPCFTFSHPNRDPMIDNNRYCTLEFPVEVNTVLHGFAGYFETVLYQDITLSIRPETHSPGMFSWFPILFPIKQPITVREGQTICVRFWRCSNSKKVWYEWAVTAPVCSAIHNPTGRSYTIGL
T1 sequence (Q9BQA1 2-342 partner limits assumed): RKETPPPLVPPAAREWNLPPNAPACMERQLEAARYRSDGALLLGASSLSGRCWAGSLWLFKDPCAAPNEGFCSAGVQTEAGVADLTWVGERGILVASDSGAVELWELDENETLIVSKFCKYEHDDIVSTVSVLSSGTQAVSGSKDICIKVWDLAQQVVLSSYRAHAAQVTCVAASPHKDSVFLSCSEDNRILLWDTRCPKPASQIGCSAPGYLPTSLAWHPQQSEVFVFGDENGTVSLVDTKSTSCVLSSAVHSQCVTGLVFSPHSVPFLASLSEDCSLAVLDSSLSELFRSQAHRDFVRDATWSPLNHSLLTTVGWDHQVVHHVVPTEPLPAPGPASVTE

Cc1c(F)c(-c2c(-c3cc(Cl)c4c(=O)[nH]nc(CN)c4c3)cnn2C)c(C#N)c2ncc(Cl)cc12 (atropisomer, axis not shown; (P)) [Example 16-97, (P)-7-(4-(4-(aminomethyl)-8-chloro-1-oxo-1,2-dihydrophthalazin-6-yl)-1-methyl-1H-pyrazol-5-yl)-3-chloro-6-fluoro-5-methylquinoline-8-carbonitrile]
IC50 (PRMT5/MEP50 complex): > 1000 nM | IC50 ([1]; Homo sapiens, HCT-116, 240 h): 1860 nM

Cn1ncc(-c2ccc3c(=O)[nH]nc(CN)c3c2)c1-c1c(C#N)ccc2c1COC2 (single isomer, unassigned) [Example 16-70, (P)-4-[4-[4-(aminomethyl)-1-oxo-2H-phthalazin-6-yl]-2-methyl-pyrazol-3-yl]-1,3-dihydroisobenzofuran-5-carbonitrile]
IC50 (PRMT5/MEP50 complex): 542 nM | IC50 [1]: 462 nM

Cn1ncc(-c2ccc3c(=O)[nH]nc(CN)c3c2)c1-c1c(F)c(Cl)c2c(c1C#N)OCCC2 (single isomer, unassigned) [Example 16-40, (M)-7-(4-(4-(aminomethyl)-1-oxo-1,2-dihydrophthalazin-6-yl)-1-methyl-1H-pyrazol-5-yl)-5-chloro-6-fluorochroman-8-carbonitrile]
IC50 (PRMT5/MEP50 complex): 60.1 nM | IC50 [1]: 12 nM

CCOc1cc(-c2cnn(C)c2-c2c(F)ccc(OC3CC3)c2C#N)cc2c(CN)n[nH]c(=O)c12 (atropisomer, axis not shown; (P)) [Example 16-73, (P)-2-[4-[4-(aminomethyl)-8-ethoxy-1-oxo-2H-phthalazin-6-yl]-2-methyl-pyrazol-3-yl]-6-(cyclopropoxy)-3-fluoro-benzonitrile]
IC50 (PRMT5/MEP50 complex): 909 nM | IC50 [1]: 1070 nM

CCOc1cc(-c2cnn(C)c2-c2c(F)c(C)cc(OC3CC3)c2C#N)cc2c(CN)n[nH]c(=O)c12 (single isomer, unassigned) [Example 16-76, (M)-2-[4-[4-(aminomethyl)-8-ethoxy-1-oxo-2H-phthalazin-6-yl]-2-methyl-pyrazol-3-yl]-6-(cyclopropoxy)-3-fluoro-4-methyl-benzonitrile]
IC50 (PRMT5/MEP50 complex): 111 nM | IC50 [1]: 41 nM

C[C@H]1C[C@@H]1Oc1ccc(F)c(-c2c(-c3ccc4c(=O)[nH]nc(CN)c4c3)cnn2C)c1C#N (single isomer, unassigned) [Example 16-67]
IC50 (PRMT5/MEP50 complex): 269 nM | IC50 [1]: 241 nM

Cn1ncc(-c2ccc3c(=O)[nH]nc(CN)c3c2)c1-c1c(F)cc2c(c1C#N)OCCO2 (single isomer, unassigned) [Example 16-89, (P)-6-[4-[4-(aminomethyl)-1-oxo-2H-phthalazin-6-yl]-2-methyl-pyrazol-3-yl]-7-fluoro-2,3-dihydro-1,4-benzodioxine-5-carbonitrile]
IC50 (PRMT5/MEP50 complex): 1360 nM | IC50 [1]: 514 nM

N#Cc1c(-c2c(-c3ccc4c(=O)[nH]nc(CN)c4c3)cnn2C(F)F)sc2ccccc12 [Example 19-3, 2-(4-(4-(aminomethyl)-1-oxo-1,2-dihydrophthalazin-6-yl)-1-(difluoromethyl)-1H-pyrazol-5-yl)benzo[b]thiophene-3-carbonitrile]
IC50 (PRMT5/MEP50 complex): 308 nM | IC50 ([1]; Homo sapiens, HCT-116, 240 h): 149 nM

CCOc1cc(-c2cnn(C)c2-c2c(F)c(Cl)cc(OC3CC3)c2C#N)cc2c(CN)n[nH]c(=O)c12 (single isomer, unassigned) [Example 16-78, (M)-2-[4-[4-(aminomethyl)-8-ethoxy-1-oxo-2H-phthalazin-6-yl]-2-methyl-pyrazol-3-yl]-4-chloro-6-(cyclopropoxy)-3-fluoro-benzonitrile]
IC50 (PRMT5/MEP50 complex): 139 nM | IC50 [1]: 17 nM

N#Cc1c(-c2c(-c3ccc4c(=O)[nH]nc(CN)c4c3)cnn2C(F)(F)F)sc2ccccc12 [Example 19-4, 2-(4-(4-(aminomethyl)-1-oxo-1,2-dihydrophthalazin-6-yl)-1-(trifluoromethyl)-1H-pyrazol-5-yl)benzo[b]thiophene-3-carbonitrile]
IC50 (PRMT5/MEP50 complex): 647 nM | IC50 ([1]; Homo sapiens, HCT-116, 240 h): 1030 nM

Cn1ncc(-c2cc(Cl)c3c(=O)[nH]nc(CN)c3c2)c1-c1c(F)cc2ccccc2c1C#N (single isomer, unassigned) [Example 16-11, (P)-2-(4-(4-(aminomethyl)-8-chloro-1-oxo-1,2-dihydrophthalazin-6-yl)-1-methyl-1H-pyrazol-5-yl)-3-fluoro-1-naphthonitrile]
IC50 (PRMT5/MEP50 complex): 102 nM | IC50 [1]: 5 nM

Cc1cnc2sc(-c3c(-c4ccc5c(=O)[nH]nc(CN)c5c4)cnn3C)c(C#N)c2c1 [Example 12-19, 2-[4-[4-(aminomethyl)-1-oxo-2H-phthalazin-6-yl]-2-methyl-pyrazol-3-yl]-5-methyl-thieno[2,3-b]pyridine-3-carbonitrile hydrochloride]
IC50 (PRMT5/MEP50 complex): 212 nM | IC50 ([1]; Homo sapiens, HCT-116, 240 h): 136 nM

Cc1cnc2cc(F)c(-c3c(-c4ccc5c(=O)[nH]nc(CN)c5c4)cnn3C)c(C#N)c2c1 (atropisomer, axis not shown; (M)) [Example 16-35, (M)-6-[4-[4-(aminomethyl)-1-oxo-2H-phthalazin-6-yl]-2-methyl-pyrazol-3-yl]-7-fluoro-3-methyl-quinoline-5-carbonitrile]
IC50 (PRMT5/MEP50 complex): 84 nM | IC50 ([1]; Homo sapiens, HCT-116, 240 h): 5 nM

Cc1cc(OC2CC2)c(C#N)c(-c2c(-c3cc(Cl)c4c(=O)[nH]nc(CN)c4c3)cnn2C)c1F (single isomer, unassigned) [Example 16-26, (M)-2-[4-[4-(aminomethyl)-8-chloro-1-oxo-2H-phthalazin-6-yl]-2-methyl-pyrazol-3-yl]-6-(cyclopropoxy)-3-fluoro-4-methyl-benzonitrile]
IC50 (PRMT5/MEP50 complex): 8.43 nM | IC50 [1]: 17 nM

Cc1c(F)c(-c2c(-c3cc(Cl)c4c(=O)[nH]nc(CN)c4c3)cnn2C)c(C#N)c2ccccc12 (single isomer, unassigned) [Example 16-60, (M)-2-[4-[4-(aminomethyl)-8-chloro-1-oxo-2H-phthalazin-6-yl]-2-methyl-pyrazol-3-yl]-3-fluoro-4-methyl-naphthalene-1-carbonitrile]
IC50 (PRMT5/MEP50 complex): 14.7 nM | IC50 [1]: 39 nM

Cn1ncc(-c2ccc3c(=O)[nH]nc(CN)c3c2)c1-c1c(F)cc2c(c1C#N)OCCO2 (single isomer, unassigned) [Example 16-90, (M)-6-[4-[4-(aminomethyl)-1-oxo-2H-phthalazin-6-yl]-2-methyl-pyrazol-3-yl]-7-fluoro-2,3-dihydro-1,4-benzodioxine-5-carbonitrile]
IC50 (PRMT5/MEP50 complex): 248 nM | IC50 [1]: 138 nM

Cn1ncc(-c2ccc3c(=O)[nH]nc(CN)c3c2)c1-c1sc2cccnc2c1C#N [Example 4-275, 2-(4-(4-(aminomethyl)-1-oxo-1,2-dihydrophthalazin-6-yl)-1-methyl-1H-pyrazol-5-yl)thieno[3,2-b]pyridine-3-carbonitrile]
IC50 ([1]; Homo sapiens, HCT-116, 240 h): 1880 nM

Cn1ncc(-c2ccc3c(=O)[nH]nc(CN)c3c2)c1-c1c(C#N)cc2cccnc2c1Cl (atropisomer, axis not shown; (M)) [Example 16-84, (M)-7-(4-(4-(aminomethyl)-1-oxo-1,2-dihydrophthalazin-6-yl)-1-methyl-1H-pyrazol-5-yl)-8-chloroquinoline-6-carbonitrile]
IC50 [1]: 123 nM

Cn1ncc(-c2ccc3c(=O)[nH]nc(CN)c3c2)c1-c1cccc2c1COCC2(C)O (atropisomer, axis not shown; (M)) [Example 16-103, (M)-4-(aminomethyl)-6-(5-(4-hydroxy-4-methylisochroman-8-yl)-1-methyl-1H-pyrazol-4-yl)phthalazin-1(2H)-one]
IC50 ([1]; Homo sapiens, HCT-116, 240 h): 4000 nM

Cn1ncc(-c2ccc3c(=O)[nH]nc(CN)c3c2)c1-c1c(F)cc2c(c1C#N)OCO2 (atropisomer, axis not shown; (P)) [Example 16-87, (P)-5-[4-[4-(aminomethyl)-1-oxo-2H-phthalazin-6-yl]-2-methyl-pyrazol-3-yl]-6-fluoro-1,3-benzodioxole-4-carbonitrile]
IC50 ([1]; Homo sapiens, HCT-116, 240 h): 158 nM

Cn1ncc(-c2ccc3c(=O)[nH]nc(CN)c3n2)c1-c1sc2ccccc2c1C#N [Example 17-3, 2-[4-[8-(aminomethyl)-5-oxo-6H-pyrido[2,3-d]pyridazin-2-yl]-2-methyl-pyrazol-3-yl]benzothiophene-3-carbonitrile]
IC50 ([1]; Homo sapiens, HCT-116, 240 h): 278 nM

Cn1ncc(-c2ccc3c(=O)[nH]nc(C4(N)COC4)c3c2)c1-c1sc2ccccc2c1C#N [Example 9-9, 2-(4-(4-(3-aminooxetan-3-yl)-1-oxo-1,2-dihydrophthalazin-6-yl)-1-methyl-1H-pyrazol-5-yl)benzo[b]thiophene-3-carbonitrile]
IC50 ([1]; Homo sapiens, HCT-116, 240 h): 10000 nM

Cn1ncc(-c2ccc3c(=O)[nH]nc(CN)c3c2)c1-c1cc(Cl)c2c(c1C#N)OCCC2 [Example 4-261, 7-[4-[4-(aminomethyl)-1-oxo-2H-phthalazin-6-yl]-2-methyl-pyrazol-3-yl]-5-chloro-chromane-8-carbonitrile]
IC50 ([1]; Homo sapiens, HCT-116, 240 h): 81 nM
